# Measured values as given in ChEMBL document CHEMBL4765277, “Design, synthesis and biological evaluation of novel indazole-based derivatives as potent HDAC inhibitors via fragment-based virtual screening” (Eur J Med Chem, 2020).
# Calls of active or inactive are those of the source. The rule behind the calls is not given here.
# Legend:
# Histone deacetylase 1 = Histone deacetylase 1 (Homo sapiens, UniProt Q13547); assay: Inhibition of recombinant human C-terminal His/FLAG-tagged HDAC1 (1 to end residues) expressed in sf9 insect cells using Boc-Lys(Ac)-AMC as substrate incubated for 60 mins by fluorescence assay
# Histone deacetylase 1, sequence (Q13547 whole entry): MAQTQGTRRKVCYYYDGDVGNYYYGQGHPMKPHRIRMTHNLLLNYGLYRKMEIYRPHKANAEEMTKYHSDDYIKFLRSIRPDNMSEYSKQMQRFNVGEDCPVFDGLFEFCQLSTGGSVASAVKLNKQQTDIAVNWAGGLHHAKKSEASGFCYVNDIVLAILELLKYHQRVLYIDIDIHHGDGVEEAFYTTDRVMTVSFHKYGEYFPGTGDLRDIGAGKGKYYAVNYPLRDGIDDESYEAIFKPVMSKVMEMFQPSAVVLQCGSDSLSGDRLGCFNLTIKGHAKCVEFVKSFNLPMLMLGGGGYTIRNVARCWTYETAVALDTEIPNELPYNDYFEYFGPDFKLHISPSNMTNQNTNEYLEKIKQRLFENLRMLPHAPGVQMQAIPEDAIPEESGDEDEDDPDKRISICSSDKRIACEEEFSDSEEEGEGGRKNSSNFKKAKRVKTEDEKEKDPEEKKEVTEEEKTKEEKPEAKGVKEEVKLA
# Histone deacetylase 2 = Histone deacetylase 2 (Homo sapiens, UniProt Q92769); assay: Inhibition of recombinant human C-terminal His-tagged HDAC2 (1 to end residues) expressed in sf9 insect cells using Boc-Lys(Ac)-AMC as substrate incubated for 60 mins by fluorescence assay
# Histone deacetylase 2, sequence (Q92769 whole entry): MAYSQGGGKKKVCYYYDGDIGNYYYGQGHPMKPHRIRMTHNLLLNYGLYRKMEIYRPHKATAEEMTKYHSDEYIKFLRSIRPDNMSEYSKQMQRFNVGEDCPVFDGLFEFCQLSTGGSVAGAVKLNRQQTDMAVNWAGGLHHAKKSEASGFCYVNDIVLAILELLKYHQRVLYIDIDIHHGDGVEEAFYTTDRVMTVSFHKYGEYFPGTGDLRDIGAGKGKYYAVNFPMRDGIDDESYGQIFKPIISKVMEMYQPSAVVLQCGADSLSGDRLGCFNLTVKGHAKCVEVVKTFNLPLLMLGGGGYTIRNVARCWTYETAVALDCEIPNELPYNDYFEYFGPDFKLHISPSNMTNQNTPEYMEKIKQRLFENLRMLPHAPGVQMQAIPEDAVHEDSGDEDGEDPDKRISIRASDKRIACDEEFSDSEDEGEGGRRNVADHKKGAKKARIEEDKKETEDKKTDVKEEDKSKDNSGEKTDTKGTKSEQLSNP
# Histone deacetylase 8 = biological target: T1, Histone deacetylase 8 (Homo sapiens, UniProt Q9BY41); assay: Inhibition of recombinant human full length C-terminal His-tagged HDAC8 expressed in sf9 insect cells using Boc-Lys(TFA)-AM as substrate incubated for 60 mins by fluorescence assay
# T1 sequence (Q9BY41 whole entry): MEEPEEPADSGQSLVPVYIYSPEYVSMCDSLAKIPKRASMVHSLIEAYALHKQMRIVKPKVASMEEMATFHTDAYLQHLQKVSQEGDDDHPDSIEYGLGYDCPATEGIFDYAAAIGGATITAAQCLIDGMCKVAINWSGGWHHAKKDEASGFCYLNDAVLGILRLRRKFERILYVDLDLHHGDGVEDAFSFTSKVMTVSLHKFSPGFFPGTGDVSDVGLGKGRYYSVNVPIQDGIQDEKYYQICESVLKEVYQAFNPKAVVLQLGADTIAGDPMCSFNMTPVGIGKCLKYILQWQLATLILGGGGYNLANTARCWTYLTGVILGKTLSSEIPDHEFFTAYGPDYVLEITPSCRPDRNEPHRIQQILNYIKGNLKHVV
# HCT-116 [1] = assay: Antiproliferative activity against human HCT-116 cells assessed as reduction in cell viability after 72 hrs by MTT assay; format: functional, cell-based; details: HCT-116, 72 h
# HeLa = assay: cells; format: functional, cell-based; details: Homo sapiens, 72 h
# Description: Antiproliferative activity against human HeLa cells assessed as reduction in cell viability after 72 hrs by MTT assay
# MCF7 = assay: cells; details: Homo sapiens, MCF7, 72 h
# Description: Antiproliferative activity against human MCF7 cells assessed as reduction in cell viability after 72 hrs by MTT assay
# HCT-116 [2] = assay: Inhibition of HDAC in human HCT-116 cells assessed as up regulation of acetylated histone H3 protein expression at 1.25 to 10 uM after 8 hrs by Western blot analysis; format: cell-based; details: dose 1.25-10 µM
# HCT-116 [3] = assay: Inhibition of HDAC in human HCT-116 cells assessed as up regulation of acetylated tubulin protein expression at 1.25 to 10 uM after 8 hrs by Western blot analysis; format: cell-based; details: dose 1.25-10 µM
# HCT-116 [4] = assay: Induction of cell cycle arrest in human HCT116 cells assessed as cell accumulation at G0/G1 phase at 3 uM after 24 hrs by Rnase/PI staining based flow cytometric analysis (reference value: 48.4%); format: functional
# HCT-116 [5] = assay: Induction of cell cycle arrest in human HCT116 cells assessed as cell accumulation at S phase at 3 uM after 24 hrs by Rnase/PI staining based flow cytometric analysis (reference value: 25.2%); format: functional
# HCT-116 [6] = assay: Induction of cell cycle arrest in human HCT116 cells assessed as cell accumulation at G2/M phase at 3 uM after 24 hrs by Rnase/PI staining based flow cytometric analysis (reference value: 26.4%); format: functional
# HCT-116 [7] = assay: Induction of apoptosis in human HCT-116 cells assessed as viable cells at 10 uM after 24 hrs by Annexin V-FITC/PI staining based flow cytometric analysis (reference value: 90.34%); format: functional; details: read-out: Activity
# HCT-116 [8] = assay: Induction of apoptosis in human HCT-116 cells assessed as viable cells at 3 uM after 24 hrs by Annexin V-FITC/PI staining based flow cytometric analysis (reference value: 90.34%); format: functional; details: for viability at 3 µM: Homo sapiens, HCT-116, read-out: Activity
# HCT-116 [9] = assay: Induction of apoptosis in human HCT-116 cells assessed as viable cells at 1 uM after 24 hrs by Annexin V-FITC/PI staining based flow cytometric analysis (reference value: 90.34%); format: functional; details: for viability at 1 µM: Homo sapiens, HCT-116, read-out: Activity
# HCT-116 [10] = assay: Induction of apoptosis in human HCT-116 cells assessed as early apoptotic cells at 10 uM after 24 hrs by Annexin V-FITC/PI staining based flow cytometric analysis (reference value: 4.01%); format: functional
# HCT-116 [11] = assay: Induction of apoptosis in human HCT-116 cells assessed as early apoptotic cells at 3 uM after 24 hrs by Annexin V-FITC/PI staining based flow cytometric analysis (reference value: 4.01%); format: functional
# HCT-116 [12] = assay: Induction of apoptosis in human HCT-116 cells assessed as early apoptotic cells at 1 uM after 24 hrs by Annexin V-FITC/PI staining based flow cytometric analysis (reference value: 4.01%); format: functional
# HCT-116 [13] = assay: Induction of apoptosis in human HCT-116 cells assessed as late apoptotic cells at 10 uM after 24 hrs by Annexin V-FITC/PI staining based flow cytometric analysis (reference value: 5.14%); format: functional
# HCT-116 [14] = assay: Induction of apoptosis in human HCT-116 cells assessed as late apoptotic cells at 3 uM after 24 hrs by Annexin V-FITC/PI staining based flow cytometric analysis (reference value: 5.14%); format: functional
# HCT-116 [15] = assay: Induction of apoptosis in human HCT-116 cells assessed as late apoptotic cells at 1 uM after 24 hrs by Annexin V-FITC/PI staining based flow cytometric analysis (reference value: 5.14%); format: functional
# HCT-116 [16] = assay: Induction of apoptosis in human HCT-116 cells assessed as necrotic cells at 10 uM after 24 hrs by Annexin V-FITC/PI staining based flow cytometric analysis (reference value: 0.51%); format: functional
# HCT-116 [17] = assay: Induction of apoptosis in human HCT-116 cells assessed as necrotic cells at 3 uM after 24 hrs by Annexin V-FITC/PI staining based flow cytometric analysis (reference value: 0.51%); format: functional
# HCT-116 [18] = assay: Induction of apoptosis in human HCT-116 cells assessed as necrotic cells at 1 uM after 24 hrs by Annexin V-FITC/PI staining based flow cytometric analysis (reference value: 0.51%); format: functional
# HCT-116 [19] = assay: Induction of apoptosis in human HCT-116 cells after 24 hrs by Annexin V-FITC/PI staining based flow cytometric analysis; format: functional, cell-based
SMILES,IC50 (Histone deacetylase 1) [nM],IC50 (Histone deacetylase 2) [nM],IC50 (Histone deacetylase 8) [nM],IC50 (HCT-116 [1]) [nM],IC50 (HeLa) [nM],IC50 (MCF7) [nM],also measured
COc1cccc(-c2ccc3c(NC(=O)CCCCCCC(=O)NO)n[nH]c3n2)c1,2.4,5.3,3.3,2700,3600,8600,
COc1cc(OC)cc(-c2ccc3c(NC(=O)CCCCCCC(=O)NO)n[nH]c3c2)c1,4.6,4.8,4.4,9500,7300,55200,
COc1ccc(F)c(-c2ccc3c(NC(=O)CCCCCCC(=O)NO)n[nH]c3c2)c1,3,3.5,4.9,7500,3300,4900,
COc1cccc(-c2ccc3c(NC(=O)CCCCCCC(=O)NO)n[nH]c3c2)c1F,3.1,6,4.4,7600,9800,2000,
O=C(CCCCCCC(=O)Nc1n[nH]c2cc(-c3ccccc3F)ccc12)NO,1.8,4.4,2.4,4100,13800,2500,
COc1ccccc1-c1ccc2c(NC(=O)CCCCCCC(=O)NO)n[nH]c2c1,4.6,5.4,4.2,2700,5900,5700,
COc1ccc(-c2ccc3c(NC(=O)CCCCCCC(=O)NO)n[nH]c3n2)cc1,6,9,7.2,4100,4800,1200,inhibition (HCT-116 [2]): Active; inhibition (HCT-116 [3]): Active; Activity (HCT-116 [4]): 50%; Activity (HCT-116 [5]): 26.1%; Activity (HCT-116 [6]): 23.9%; viability at 10 µM (HCT-116 [7]): 79.8%; viability at 3 µM (HCT-116 [8]): 89.1%; viability at 1 µM (HCT-116 [9]): 91.8%; Activity (HCT-116 [10]): 5.75%; Activity (HCT-116 [11]): 2.89%; Activity (HCT-116 [12]): 2.34%; Activity (HCT-116 [13]): 13.34%; Activity (HCT-116 [14]): 7.8%; Activity (HCT-116 [15]): 5.52%; Activity (HCT-116 [16]): 1.1%; Activity (HCT-116 [17]): 0.24%; Activity (HCT-116 [18]): 0.31%
COc1cccc(-c2ccc3c(NC(=O)CCCC(=O)NO)n[nH]c3c2)c1,76,168,54,> 50000,> 50000,41500,
O=C(CCCCCCC(=O)Nc1ccccc1)NO [VORINOSTAT],,,,4900,,800,Activity (HCT-116 [4]): 26.2%; Activity (HCT-116 [5]): 29.4%; Activity (HCT-116 [6]): 44.2%; Activity (HCT-116 [8]): 17.93%; Activity (HCT-116 [9]): 77.54%; Activity (HCT-116 [10]): 14.44%; Activity (HCT-116 [11]): 12.27%; Activity (HCT-116 [12]): 12.87%; Activity (HCT-116 [13]): 67.72%; Activity (HCT-116 [14]): 67.78%; Activity (HCT-116 [15]): 57.83%; Activity (HCT-116 [16]): 1.37%; Activity (HCT-116 [17]): 2.03%
COc1ccc(-c2ccc3c(NC(=O)CCCCCCC(=O)NO)n[nH]c3c2)cc1OC,3.4,4.6,3.2,14600,21300,10900,
COc1cccc(-c2ccc3c(NC(=O)C4CCC(C(=O)NO)CC4)n[nH]c3c2)c1 (stereo unspecified),2420,4630,3340,47400,> 50000,> 50000,

# The next lines start with results.
IC50 (Histone deacetylase 1) [nM],IC50 (Histone deacetylase 2) [nM],IC50 (Histone deacetylase 8) [nM],IC50 (HCT-116 [1]) [nM],IC50 (HeLa) [nM],IC50 (MCF7) [nM],SMILES,also measured
2.6,63,4.5,10600,20100,7400,COc1cccc(-c2ccc3c(NC(=O)CCCCCC(=O)NO)n[nH]c3c2)c1,
2.7,5.2,4,2600,8100,2200,O=C(CCCCCCC(=O)Nc1n[nH]c2cc(-c3ccccc3Cl)ccc12)NO,
1.9,3.9,3,8100,3000,19100,COc1cccc(-c2ccc3c(NC(=O)CCCCCCC(=O)NO)n[nH]c3c2)c1,
3.1,3.6,3.3,3900,4800,1000,O=C(CCCCCCC(=O)Nc1n[nH]c2cc(-c3ccc(Cl)cc3)ccc12)NO,inhibition (HCT-116 [2]): Active; inhibition (HCT-116 [3]): Active; Activity (HCT-116 [4]): 26.2%; Activity (HCT-116 [5]): 29.7%; Activity (HCT-116 [6]): 44.1%; Activity (HCT-116 [19]): Dose-dependent effect; viability at 10 µM (HCT-116 [7]): 23.2%; viability at 3 µM (HCT-116 [8]): 24%; viability at 1 µM (HCT-116 [9]): 40.6%; Activity (HCT-116 [10]): 12.32%; Activity (HCT-116 [11]): 10.36%; Activity (HCT-116 [12]): 8.73%; Activity (HCT-116 [13]): 61.98%; Activity (HCT-116 [14]): 64.75%; Activity (HCT-116 [15]): 46.29%; Activity (HCT-116 [16]): 2.47%; Activity (HCT-116 [17]): 0.86%; Activity (HCT-116 [18]): 2.41%
36.2,31.6,32.5,7500,29500,8300,O=C(CCCCCCC(=O)Nc1n[nH]c2cc(-c3ccsc3)ccc12)NO,
9.6,13.1,12.6,10200,12500,5500,O=C(CCCCCCC(=O)Nc1n[nH]c2cc(-c3ccccc3)ccc12)NO,
2.5,5,4.1,2900,6000,47300,O=C(CCCCCCC(=O)Nc1n[nH]c2cc(-c3cccc(C(F)(F)F)c3)ccc12)NO,
2.1,4.2,3.4,4200,10800,2400,CCOc1cccc(-c2ccc3c(NC(=O)CCCCCCC(=O)NO)n[nH]c3c2)c1,
23,25.9,24.5,12300,6900,40100,O=C(CCCCCCC(=O)Nc1n[nH]c2cc(-c3ccncc3)ccc12)NO,
3.7,4,3.8,41800,200,27500,O=C(CCCCCCC(=O)Nc1n[nH]c2cc(-c3cccc(Cl)c3)ccc12)NO,
13,62,41,23500,5800,4400,COc1cccc(-c2ccc3c(NC(=O)CCCCC(=O)NO)n[nH]c3c2)c1,
